Experimental data as given in patent US7897616B2, “Imidazopyridin-2-one derivatives as inhibitors of lipases and phospholipases” (Sanofi-Aventis, priority 2006, dated 2011).

These molecules were tested against T1, endothelial lipase (EL) (Homo sapiens, UniProt Q9Y5X9) (assay: EL inhibition assay (EL activity assay with fluorescent Bodipy phospholipid substrate)). Details: EL from conditioned medium of recombinant cell lines (CHO, HEK293); 37° C., 90 minutes; Bodipy-labeled phosphocholine substrate.
T1 construct: made in house; host or cells: recombinant CHO or HEK293 cell lines; concentrated conditioned medium used as enzyme solution
T1 sequence (Q9Y5X9 21-500): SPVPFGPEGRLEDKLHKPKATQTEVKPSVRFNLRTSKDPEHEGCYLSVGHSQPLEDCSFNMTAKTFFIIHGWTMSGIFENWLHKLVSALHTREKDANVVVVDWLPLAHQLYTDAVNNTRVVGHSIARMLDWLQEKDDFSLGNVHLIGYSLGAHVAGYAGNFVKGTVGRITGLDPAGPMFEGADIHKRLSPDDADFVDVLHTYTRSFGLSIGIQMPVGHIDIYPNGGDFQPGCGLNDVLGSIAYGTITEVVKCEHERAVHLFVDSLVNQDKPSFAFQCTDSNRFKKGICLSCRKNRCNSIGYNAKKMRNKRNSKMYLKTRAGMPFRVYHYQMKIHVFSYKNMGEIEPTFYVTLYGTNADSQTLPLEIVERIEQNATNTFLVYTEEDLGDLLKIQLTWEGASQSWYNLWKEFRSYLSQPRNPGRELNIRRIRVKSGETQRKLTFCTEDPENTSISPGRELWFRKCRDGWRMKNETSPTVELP
Type: biochemical
Experimental: The activity of the compounds of the invention of the formula I was tested in the following enzyme assay system: […]
EL is released as secretory protein in high concentration into cell culture medium (conditioned medium) by recombinant cell lines (CHO, HEK293). This is employed as an enzyme solution after concentration.
The phospholipase-specific substrate 1,2-bis(4,4-difluoro-5,7-dimethyl-4-bora-3a,4a-diaza-s-indacene-3-undecanoyl)-sn-glycero-3-phosphocholine (manufacturer Molecular Probes) is used to characterize the enzymatic activity of endothelial lipase and the effect of inhibitors. Hydrolysis of the A1 ester linkage of this phospholipid by the enzyme liberates a fatty acid labeled with the fluorescent dye Bodipy which can be detected after separation by thin-layer chromatography on an HPTLC plate (silica gel 60, Merck) or directly in the reaction vessel by measuring the fluorescence. The substrate solution is prepared by dissolving 100 μg of 1,2-bis(4,4-difluoro-5,7-dimethyl-4-bora-3a,4a-diaza-s-indacene-3-undecanoyl)-sn-glycero-3-phospho-choline (manufacturer Molecular Probes) in 100 μl of DMSO and taking up in 2.4 mg of tripalmitin (Sigma) in 393 μl of chloroform which comprises 20 mg/ml of DOP-choline (1,2-dioleoyl-sn-glycero-3-phosphocholine). 39.3 μl of this lipid mixture are transferred into a fresh reaction vessel, and the solvent is evaporated off. The lipid mixture is dissolved in 4 ml of 200 mM TRIS-HCl, 150 mM sodium chloride, pH=7.4, by sonicating twice. The subsequent enzymic reaction takes place at 37° C. for 90 minutes. For this purpose, 20 μl of the substrate solution are incubated with 2 μl of inhibitor of appropriate concentration (dissolved in 10% DMSO, using 10% strength DMSO solution for control) and 2 μl of enzyme solution (conditioned medium). Subsequently, 4 μl of the assay mixture are loaded onto an HPTLC plate (silica gel 60, Merck), and the liberated fluorescent dye is separated for detection with a mobile phase (diethyl ether:petroleum spirit:acetic acid [78:22:1]). After evaporation of the mobile phase, the plate is read in a fluorescence scanner. An increased liberation of the fluorescent dye in the uninhibited reaction is observed as a measure of the enzyme activity.
The enzymatic activity is reduced as a function of the inhibitor concentration used, and the inhibitor concentration at which a half-maximum enzymatic activity is observed is called IC50.

Row | IC50 | SMILES
1 | 0.24 µM | Cc1ccccc1CNC(=O)n1c(=O)n(C)c2cccnc21 [Example 2, N-(2-Methylbenzyl)-1-methyl-2-oxo-1,2-dihydroimidazo[4,5-b]pyridine-3-carboxamide]
2 | 0.226 µM | CCCCCCNC(=O)n1c(=O)n(C(=O)NCCCCCC)c2cnccc21 [Example 8, N,N′-Bishexyl-2-oxoimidazo[4,5-c]pyridine-1,3-dicarboxamide]
3 | 0.232 µM | Cn1c(=O)n(C(=O)N[C@@H]2CCc3ccccc32)c2ncccc21 [Example 9, 1-Methyl-2-oxo-1,2-dihydro-imidazo[4,5-b]pyridine-3-carboxylic acid-(R)-indan-1-ylamide]
4 | 0.06 µM | CCCCCCNC(=O)n1c(=O)n(C)c2cccnc21 [Example 1, N-Hexyl-1-methyl-2-oxo-1,2-dihydroimidazo[4,5-b]pyridine-3-carboxamide]
5 | 0.146 µM | CCCCCCNC(=O)n1c(=O)n(C(=O)OC(C)(C)C)c2c(C)ccnc21 [Example 7, tert-Butyl 3-hexylcarbamoyl-7-methyl-2-oxo-2,3-dihydroimidazo[4,5-b]pyridine-1-carboxylate]
